Source: patent publication US12691112B2, “FGFR tyrosine kinase inhibitors for the treatment of urothelial carcinoma” (Janssen Pharmaceutica NV, priority 2019, dated 2026)
Read-outs that look alike come from different tables or passages of the source.

Test system: subjects with metastatic or surgically unresectable urothelial cancer
Settings: all-causality
Protocol: Study treatment was administered on 28-day cycles. […] Patients were randomized 1:1 to 28-day cycles to the following 2 regimens until a regimen was selected for further study: Regimen 1 (10 mg once daily intermittent (7 days on/7 days); Regimen 2 (6 mg once daily continuous). Randomization was stratified according to performance status (0 to 1 vs. 2), hemoglobin value (<10 vs. ≥10 g per dl), FGFR alteration type (mutation vs. fusion), prior treatment status (chemotherapy-resistant vs. chemotherapy naïve), and disease distribution (presence or absence of visceral [liver, lung, bone]metastases). Starting dose selection was based on phase 1 efficacy and tolerability.
Based on interim analysis and pharmacokinetic-pharmacodynamic modeling of serum phosphate levels, starting dose was increased to 8 mg per day continuous (Regimen 3). Thus, after interim analysis, this became a single-arm study. […] Treatment continued until disease progression or unacceptable adverse event(s) per investigator.
Safety was evaluated based on clinical laboratory tests, physical exams, electrocardiograms, and ophthalmology examinations. Adverse events and abnormalities were assessed by investigator and graded per NCI CTCAE v.4.0
Prophylactic measures were taken to minimize risk of common adverse events related to FGFR inhibition. To reduce risk of hyperphosphatemia, a low-phosphate diet was recommended for all patients (600 to 800 mg of dietary phosphate intake per day). To reduce the risk of skin effects, the application of alcohol-free emollient moisturizing cream and avoidance of unnecessary exposure to sunlight, soap, perfumed products, and hot baths was recommended. Patients were asked to keep their fingers and toes clean and nails trimmed to reduce risk of nail effects.
Additional ophthalmology examinations were performed if clinically indicated.

## COc1cc(OC)cc(N(CCNC(C)C)c2ccc3ncc(-c4cnn(C)c4)nc3c2)c1 [erdafitinib, N-(3,5-dimethoxy-phenyl)-N′-(1-methylethyl)-N-[3-(1-methyl-1H-pyrazol-4-yl)quinoxalin-6-yl]ethane-1,2-diamine]
6 mg continuous, n = 78
  Conjunctivitis, grade ≥ 3: 1 no.
  Constipation, any grade: 20 no.
  Constipation, grade 1: 10 no.
  Constipation, grade 2: 10 no.
  Constipation, grade ≥ 3: 0 no.
  Decreased appetite, any grade: 29 no.
  Decreased appetite, grade 1: 12 no.
  Decreased appetite, grade 2: 13 no.
  Decreased appetite, grade ≥ 3: 4 no.
  Diarrhea, any grade: 39 no.
  Diarrhea, grade 1: 24 no.
  Diarrhea, grade 2: 15 no.
  Diarrhea, grade ≥ 3: 0 no.
  Dry eye, any grade: 6 no.
  Dry eye, grade 1: 3 no.
  Dry eye, grade 2: 2 no.
  Dry eye, grade ≥ 3: 1 no.
  Dry mouth, any grade: 31 no.
  Dry mouth, grade 1: 23 no.
  Dry mouth, grade 2: 6 no.
  Dry mouth, grade ≥ 3: 2 no.
  Dry skin, any grade: 18 no.
  Dry skin, grade 1: 10 no.
  Dry skin, grade 2: 8 no.
  Dry skin, grade ≥ 3: 0 no.
  Dysgeusia, any grade: 10 no.
  Dysgeusia, grade 1: 6 no.
  Dysgeusia, grade 2: 4 no.
  Dysgeusia, grade ≥ 3: 0 no.
  Dyspepsia, any grade: 9 no.
  Dyspepsia, grade 1: 6 no.
  Dyspepsia, grade 2: 3 no.
  Dyspepsia, grade ≥ 3: 0 no.
  Dyspnea, any grade: 6 no.
  Dyspnea, grade 1: 1 no.
  Dyspnea, grade 2: 3 no.
  Dyspnea, grade ≥ 3: 2 no.
  Fatigue, any grade: 20 no.
  Fatigue, grade 1: 8 no.
  Fatigue, grade 2: 8 no.
  Fatigue, grade ≥ 3: 4 no.
  Hand-foot syndrome, any grade: 13 no.
  Hand-foot syndrome, grade 1: 4 no.
  Hand-foot syndrome, grade 2: 9 no.
  Hand-foot syndrome, grade ≥ 3: 0 no.
  Hematuria, any grade: 6 no.
  Hematuria, grade 1: 5 no.
  Hematuria, grade 2: 0 no.
  Hematuria, grade ≥ 3: 1 no.
  Hyperphosphatemia, any grade: 52 no.
  Hyperphosphatemia, grade 1: 44 no.
  Hyperphosphatemia, grade 2: 8 no.
  Hyperphosphatemia, grade ≥ 3: 0 no.
  Hypomagnesemia, any grade: 6 no.
  Hypomagnesemia, grade 1: 6 no.
  Hypomagnesemia, grade 2: 0 no.
  Hypomagnesemia, grade ≥ 3: 0 no.
  Hyponatremia, any grade: 7 no.
  Hyponatremia, grade 1: 2 no.
  Hyponatremia, grade 2: 0 no.
  Hyponatremia, grade ≥ 3: 5 no.
  Insomnia, any grade: 8 no.
  Insomnia, grade 1: 4 no.
  Insomnia, grade 2: 2 no.
  Insomnia, grade ≥ 3: 2 no.
  Lacrimation increased, any grade: 13 no.
  Lacrimation increased, grade 1: 10 no.
  Lacrimation increased, grade 2: 3 no.
  Lacrimation increased, grade ≥ 3: 0 no.
  Nail dystrophy, any grade: 7 no.
  Nail dystrophy, grade 1: 6 no.
  Nail dystrophy, grade 2: 1 no.
  Nail dystrophy, grade ≥ 3: 0 no.
  Nausea, any grade: 16 no.
  Nausea, grade 1: 11 no.
  Nausea, grade 2: 4 no.
  Nausea, grade ≥ 3: 1 no.
  Onycholysis, any grade: 13 no.
  Onycholysis, grade 1: 2 no.
  Onycholysis, grade 2: 6 no.
  Onycholysis, grade ≥ 3: 5 no.
  Onychomadesis, any grade: 8 no.
  Onychomadesis, grade 1: 2 no.
  Onychomadesis, grade 2: 6 no.
  Onychomadesis, grade ≥ 3: 0 no.
  Oropharyngeal pain, any grade: 8 no.
  Oropharyngeal pain, grade 1: 5 no.
  Oropharyngeal pain, grade 2: 3 no.
  Oropharyngeal pain, grade ≥ 3: 0 no.
  Pain in extremity, any grade: 9 no.
  Pain in extremity, grade 1: 2 no.
  Pain in extremity, grade 2: 6 no.
  Pain in extremity, grade ≥ 3: 1 no.
  Paronychia, any grade: 12 no.
  Paronychia, grade 1: 2 no.
  Paronychia, grade 2: 10 no.
  Paronychia, grade ≥ 3: 0 no.
  Peripheral edema, any grade: 6 no.
  Peripheral edema, grade 1: 2 no.
  Peripheral edema, grade 2: 3 no.
  Peripheral edema, grade ≥ 3: 1 no.
  Pyrexia, any grade: 14 no.
  Pyrexia, grade 1: 8 no.
  Pyrexia, grade 2: 3 no.
  Pyrexia, grade ≥ 3: 3 no.
  Retinal detachment, any grade: 8 no.
  Retinal detachment, grade 1: 5 no.
  Retinal detachment, grade 2: 3 no.
  Retinal detachment, grade ≥ 3: 0 no.
  Stomatitis, any grade: 33 no.
  Stomatitis, grade 1: 13 no.
  Stomatitis, grade 2: 13 no.
  Stomatitis, grade ≥ 3: 7 no.
  Urinary tract infection, any grade: 13 no.
  Urinary tract infection, grade 1: 0 no.
  Urinary tract infection, grade 2: 9 no.
  Urinary tract infection, grade ≥ 3: 4 no.
  Vision blurred, any grade: 5 no.
  Vision blurred, grade 1: 3 no.
  Vision blurred, grade 2: 1 no.
  Vision blurred, grade ≥ 3: 1 no.
  Vomiting, any grade: 11 no.
  Vomiting, grade 1: 9 no.
  Vomiting, grade 2: 2 no.
  Vomiting, grade ≥ 3: 0 no.
  Weight decreased, any grade: 8 no.
  Weight decreased, grade 1: 4 no.
  Weight decreased, grade 2: 2 no.
  Weight decreased, grade ≥ 3: 2 no.
8 mg continuous, n = 99
  Abdominal pain, any grade: 8 no.
  Abdominal pain, grade 1: 5 no.
  Abdominal pain, grade 2: 2 no.
  Abdominal pain, grade ≥ 3: 1 no.
  Alanine aminotransferase increased, any grade: 17 no.
  Alanine aminotransferase increased, grade 1: 13 no.
  Alanine aminotransferase increased, grade 2: 2 no.
  Alanine aminotransferase increased, grade ≥ 3: 2 no.
  Alopecia, any grade: 29 no.
  Alopecia, grade 1: 23 no.
  Alopecia, grade 2: 6 no.
  Alopecia, grade ≥ 3: 0 no.
  Anemia, any grade: 20 no.
  Anemia, grade 1: 9 no.
  Anemia, grade 2: 7 no.
  Anemia, grade ≥ 3: 4 no.
  Arthralgia, any grade: 8 no.
  Arthralgia, grade 1: 5 no.
  Arthralgia, grade 2: 3 no.
  Arthralgia, grade ≥ 3: 0 no.
  Aspartate aminotransferase increased, any grade: 10 no.
  Aspartate aminotransferase increased, grade 1: 8 no.
  Aspartate aminotransferase increased, grade 2: 2 no.
  Aspartate aminotransferase increased, grade ≥ 3: 0 no.
  Asthenia, any grade: 20 no.
  Asthenia, grade 1: 2 no.
  Asthenia, grade 2: 11 no.
  Asthenia, grade ≥ 3: 7 no.
  Back pain, any grade: 5 no.
  Back pain, grade 1: 4 no.
  Back pain, grade 2: 1 no.
  Back pain, grade ≥ 3: 0 no.
  Blood creatinine increased, any grade: 10 no.
  Blood creatinine increased, grade 1: 5 no.
  Blood creatinine increased, grade 2: 5 no.
  Blood creatinine increased, grade ≥ 3: 0 no.
  Conjunctivitis, any grade: 13 no.
  Conjunctivitis, grade 1: 6 no.
  Conjunctivitis, grade 2: 7 no.
  Conjunctivitis, grade ≥ 3: 0 no.
  Constipation, any grade: 28 no.
  Constipation, grade 1: 19 no.
  Constipation, grade 2: 8 no.
